# Measured values: article PMC5862592, “CDK8/19 inhibition induces premature G1/S transition and ATR-dependent cell death in prostate cancer cells” (Oncotarget, 2018)
# Read-outs that look alike come from different tables or passages of the source.
# Experiments:
# Experiment in all cases: biochemical
# Set-up in all cases: KINOMEscan active site-directed competition binding assay (DiscoveRx), 456 kinases, per cent of control at 300 nM
# Settings in all cases: read-out: Percent of Control (%)
# TAOK1 = TAOK1 (Homo sapiens, UniProt Q7L7X3)
# In short: (§1)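 Values reflect active-site competition binding from a screen of 456 kinases, with test compounds at a fixed 300 nmol/L.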
# EPHA7 = EPHA7 (Homo sapiens, UniProt Q15375)
# In short: as §1
# BLK = BLK (Homo sapiens, UniProt P51451)
# BLK, sequence (P51451 whole entry): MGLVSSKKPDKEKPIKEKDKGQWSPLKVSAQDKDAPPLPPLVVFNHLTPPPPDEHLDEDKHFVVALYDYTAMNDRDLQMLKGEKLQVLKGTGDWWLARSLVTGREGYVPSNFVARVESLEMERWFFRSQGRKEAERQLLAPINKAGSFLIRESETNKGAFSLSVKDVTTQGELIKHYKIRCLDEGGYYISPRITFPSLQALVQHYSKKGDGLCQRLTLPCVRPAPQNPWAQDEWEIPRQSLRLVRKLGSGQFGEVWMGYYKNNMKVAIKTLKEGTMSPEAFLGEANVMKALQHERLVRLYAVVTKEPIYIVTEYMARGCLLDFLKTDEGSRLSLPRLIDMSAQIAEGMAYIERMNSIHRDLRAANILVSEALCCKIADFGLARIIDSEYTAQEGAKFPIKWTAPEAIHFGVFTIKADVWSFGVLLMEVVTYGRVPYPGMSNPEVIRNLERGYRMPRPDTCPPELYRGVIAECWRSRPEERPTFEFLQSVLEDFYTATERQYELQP
# In short: as §1
# ANKK1 = ANKK1 (Homo sapiens, UniProt Q8NFD2)
# In short: as §1
# LRRK2(G2019S) = LRRK2(G2019S) (Homo sapiens, UniProt Q5S007, G2019S)
# In short: as §1
# PIK3C2B = PIK3C2B (Homo sapiens, UniProt O00750)
# In short: as §1
# CSF1R = CSF1R (Homo sapiens, UniProt P07333)
# In short: as §1
# ASK2 = biological target: T1, ASK2 (Homo sapiens, UniProt O95382)
# T1 construct: gene MAP3K6
# In short: as §1
# MLK3 = biological target: T2, MLK3 (Homo sapiens, UniProt Q16584)
# T2 construct: gene MAP3K11
# In short: as §1
# NEK9 = NEK9 (Homo sapiens, UniProt Q8TD19)
# In short: as §1
# KIT(V559D,V654A) = KIT(V559D,V654A) (Homo sapiens, UniProt P10721, V559D/V654A)
# KIT(V559D,V654A), sequence (P10721 whole entry V559D/V654A): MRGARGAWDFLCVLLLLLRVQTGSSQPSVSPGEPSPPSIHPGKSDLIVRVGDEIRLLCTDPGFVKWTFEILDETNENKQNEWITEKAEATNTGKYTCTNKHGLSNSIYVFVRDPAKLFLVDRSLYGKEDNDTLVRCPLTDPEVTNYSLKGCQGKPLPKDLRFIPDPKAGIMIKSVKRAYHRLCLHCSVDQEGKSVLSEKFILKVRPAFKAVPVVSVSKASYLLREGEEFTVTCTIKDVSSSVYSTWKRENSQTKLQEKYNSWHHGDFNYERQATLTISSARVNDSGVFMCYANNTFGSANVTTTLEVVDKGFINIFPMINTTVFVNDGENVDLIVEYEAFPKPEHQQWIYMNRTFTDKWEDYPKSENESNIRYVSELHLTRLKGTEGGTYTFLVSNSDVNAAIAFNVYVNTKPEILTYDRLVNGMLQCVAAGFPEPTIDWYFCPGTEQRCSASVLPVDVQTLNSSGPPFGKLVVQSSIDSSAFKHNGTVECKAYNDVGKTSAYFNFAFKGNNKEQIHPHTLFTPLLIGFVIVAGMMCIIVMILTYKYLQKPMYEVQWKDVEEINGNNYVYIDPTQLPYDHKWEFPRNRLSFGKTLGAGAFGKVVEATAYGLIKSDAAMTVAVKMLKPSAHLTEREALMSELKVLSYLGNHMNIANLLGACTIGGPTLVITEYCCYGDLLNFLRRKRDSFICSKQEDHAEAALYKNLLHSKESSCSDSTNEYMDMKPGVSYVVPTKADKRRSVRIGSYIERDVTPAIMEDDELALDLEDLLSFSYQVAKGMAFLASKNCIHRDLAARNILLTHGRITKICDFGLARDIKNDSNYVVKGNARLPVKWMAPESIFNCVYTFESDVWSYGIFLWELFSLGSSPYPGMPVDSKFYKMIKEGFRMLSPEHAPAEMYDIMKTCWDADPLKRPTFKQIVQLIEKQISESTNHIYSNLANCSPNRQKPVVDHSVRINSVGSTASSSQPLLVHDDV
# In short: as §1
# TGFBR2 = TGFBR2 (Homo sapiens, UniProt P37173)
# TGFBR2, sequence (P37173 whole entry): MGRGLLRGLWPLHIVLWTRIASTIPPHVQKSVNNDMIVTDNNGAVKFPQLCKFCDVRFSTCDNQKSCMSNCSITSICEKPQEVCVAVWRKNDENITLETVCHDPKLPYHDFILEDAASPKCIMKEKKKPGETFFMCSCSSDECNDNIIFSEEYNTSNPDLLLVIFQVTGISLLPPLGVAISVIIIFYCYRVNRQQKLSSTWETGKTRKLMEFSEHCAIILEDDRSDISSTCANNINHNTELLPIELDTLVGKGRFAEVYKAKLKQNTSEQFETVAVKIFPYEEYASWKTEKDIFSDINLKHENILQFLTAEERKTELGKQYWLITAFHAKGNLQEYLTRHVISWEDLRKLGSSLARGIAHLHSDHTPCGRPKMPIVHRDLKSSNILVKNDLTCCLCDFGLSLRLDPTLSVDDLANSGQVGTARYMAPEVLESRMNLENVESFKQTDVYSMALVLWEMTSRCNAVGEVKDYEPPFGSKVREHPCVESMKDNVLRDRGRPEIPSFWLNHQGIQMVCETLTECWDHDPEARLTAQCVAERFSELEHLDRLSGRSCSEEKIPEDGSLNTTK
# In short: as §1
# RIPK2 = RIPK2 (Homo sapiens, UniProt O43353)
# In short: as §1
# TGFBR1 = TGFBR1 (Homo sapiens, UniProt P36897)
# TGFBR1, sequence (P36897 whole entry): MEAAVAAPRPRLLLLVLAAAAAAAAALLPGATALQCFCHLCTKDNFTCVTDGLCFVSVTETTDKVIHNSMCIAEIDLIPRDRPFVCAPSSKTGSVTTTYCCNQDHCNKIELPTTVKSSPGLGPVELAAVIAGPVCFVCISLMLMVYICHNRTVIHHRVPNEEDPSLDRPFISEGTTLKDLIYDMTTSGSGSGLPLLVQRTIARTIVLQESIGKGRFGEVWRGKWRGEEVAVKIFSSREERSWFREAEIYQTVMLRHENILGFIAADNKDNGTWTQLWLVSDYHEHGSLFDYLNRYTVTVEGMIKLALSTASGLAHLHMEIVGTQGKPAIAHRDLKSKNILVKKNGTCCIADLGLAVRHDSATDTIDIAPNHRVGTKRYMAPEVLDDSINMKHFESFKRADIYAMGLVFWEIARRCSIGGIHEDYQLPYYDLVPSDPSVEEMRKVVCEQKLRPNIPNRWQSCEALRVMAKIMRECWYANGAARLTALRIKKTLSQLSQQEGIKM
# In short: as §1
# YANK2 = biological target: T3, YANK2 (Homo sapiens, UniProt Q9NY57)
# T3 construct: gene STK32B
# In short: as §1
# PRP4 = biological target: T4, PRP4 (Homo sapiens, UniProt Q13523)
# T4 construct: gene PRPF4B
# In short: as §1
# MAP3K1 = MAP3K1 (Homo sapiens, UniProt Q13233)
# In short: as §1
# [1] = biological target: EGFR(L747-S752del, P753S) (Homo sapiens, UniProt P00533, DEL747-752/P753S)
# EGFR(L747-S752del, P753S), sequence (P00533 with tags, fused parts or gaps DEL747-752/P753S): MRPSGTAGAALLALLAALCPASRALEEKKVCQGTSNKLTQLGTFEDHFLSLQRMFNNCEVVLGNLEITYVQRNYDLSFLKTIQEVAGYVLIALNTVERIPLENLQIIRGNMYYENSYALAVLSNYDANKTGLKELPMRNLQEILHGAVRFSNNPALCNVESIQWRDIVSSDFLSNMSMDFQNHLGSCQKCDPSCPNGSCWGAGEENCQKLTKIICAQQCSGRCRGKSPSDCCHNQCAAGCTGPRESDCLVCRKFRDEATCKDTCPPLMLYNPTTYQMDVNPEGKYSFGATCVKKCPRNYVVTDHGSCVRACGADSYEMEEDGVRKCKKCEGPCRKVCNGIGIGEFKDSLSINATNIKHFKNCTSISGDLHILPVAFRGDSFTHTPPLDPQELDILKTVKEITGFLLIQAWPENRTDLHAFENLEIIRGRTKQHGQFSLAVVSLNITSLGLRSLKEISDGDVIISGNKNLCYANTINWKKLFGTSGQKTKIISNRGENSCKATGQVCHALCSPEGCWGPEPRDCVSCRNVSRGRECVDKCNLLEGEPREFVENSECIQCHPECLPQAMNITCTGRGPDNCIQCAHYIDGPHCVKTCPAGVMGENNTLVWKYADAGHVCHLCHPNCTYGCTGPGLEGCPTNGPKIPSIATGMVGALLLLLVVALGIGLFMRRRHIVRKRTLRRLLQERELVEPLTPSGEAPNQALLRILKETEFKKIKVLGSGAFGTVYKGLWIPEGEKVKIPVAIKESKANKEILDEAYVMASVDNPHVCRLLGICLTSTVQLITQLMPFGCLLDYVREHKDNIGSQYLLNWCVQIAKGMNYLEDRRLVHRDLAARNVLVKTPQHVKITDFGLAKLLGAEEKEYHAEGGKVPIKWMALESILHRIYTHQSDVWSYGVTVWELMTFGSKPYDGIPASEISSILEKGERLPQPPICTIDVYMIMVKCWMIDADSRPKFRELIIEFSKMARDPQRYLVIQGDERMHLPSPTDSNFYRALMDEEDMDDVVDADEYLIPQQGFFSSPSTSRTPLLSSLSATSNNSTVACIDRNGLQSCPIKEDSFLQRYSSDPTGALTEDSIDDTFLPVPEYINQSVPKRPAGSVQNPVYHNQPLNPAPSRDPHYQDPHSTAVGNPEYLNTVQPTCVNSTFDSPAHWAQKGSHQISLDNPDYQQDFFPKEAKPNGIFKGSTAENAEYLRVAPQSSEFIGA
# In short: as §1
# NIK = biological target: T5, NIK (Homo sapiens, UniProt Q99558)
# T5 construct: gene MAP3K14
# T5 sequence (Q99558 whole entry): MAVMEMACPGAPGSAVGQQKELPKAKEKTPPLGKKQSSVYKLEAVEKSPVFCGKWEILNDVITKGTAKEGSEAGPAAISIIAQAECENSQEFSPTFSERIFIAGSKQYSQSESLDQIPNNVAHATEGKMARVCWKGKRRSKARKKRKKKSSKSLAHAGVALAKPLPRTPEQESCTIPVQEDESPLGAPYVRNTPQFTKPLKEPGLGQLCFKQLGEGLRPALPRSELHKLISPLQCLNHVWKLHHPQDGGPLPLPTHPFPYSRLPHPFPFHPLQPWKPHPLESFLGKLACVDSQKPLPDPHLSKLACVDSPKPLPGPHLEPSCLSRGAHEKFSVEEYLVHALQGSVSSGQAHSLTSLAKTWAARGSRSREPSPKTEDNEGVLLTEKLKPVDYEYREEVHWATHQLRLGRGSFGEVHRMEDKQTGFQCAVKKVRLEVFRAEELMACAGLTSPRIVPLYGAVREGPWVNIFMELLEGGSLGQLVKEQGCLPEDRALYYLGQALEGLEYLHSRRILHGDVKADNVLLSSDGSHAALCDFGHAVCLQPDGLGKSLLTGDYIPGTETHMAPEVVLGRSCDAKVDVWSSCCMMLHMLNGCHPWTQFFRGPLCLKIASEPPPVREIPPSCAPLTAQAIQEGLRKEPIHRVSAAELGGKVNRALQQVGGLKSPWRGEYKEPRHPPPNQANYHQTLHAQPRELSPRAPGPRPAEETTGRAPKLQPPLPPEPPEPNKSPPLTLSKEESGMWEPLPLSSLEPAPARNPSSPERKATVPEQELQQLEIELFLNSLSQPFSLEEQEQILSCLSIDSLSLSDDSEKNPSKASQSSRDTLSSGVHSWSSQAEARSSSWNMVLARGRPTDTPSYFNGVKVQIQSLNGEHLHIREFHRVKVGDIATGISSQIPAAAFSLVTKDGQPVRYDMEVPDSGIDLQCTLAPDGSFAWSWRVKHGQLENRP
# In short: as §1
# BRAF = BRAF (Homo sapiens, UniProt P15056)
# In short: as §1
# ERK2 = biological target: T6, ERK2 (Homo sapiens, UniProt P28482)
# T6 construct: gene MAPK1
# T6 sequence (P28482 whole entry): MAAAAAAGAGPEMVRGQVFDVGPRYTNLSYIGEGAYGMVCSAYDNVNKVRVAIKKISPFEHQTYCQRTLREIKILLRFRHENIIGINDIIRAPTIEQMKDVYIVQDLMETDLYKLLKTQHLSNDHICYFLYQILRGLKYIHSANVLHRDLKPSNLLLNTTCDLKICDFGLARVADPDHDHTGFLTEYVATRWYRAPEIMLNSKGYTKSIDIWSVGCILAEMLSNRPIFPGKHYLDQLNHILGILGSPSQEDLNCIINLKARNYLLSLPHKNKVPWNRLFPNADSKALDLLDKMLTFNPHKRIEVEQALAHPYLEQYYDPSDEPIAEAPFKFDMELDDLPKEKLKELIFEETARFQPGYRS
# In short: as §1
# ERK5 = biological target: T7, ERK5 (Homo sapiens, UniProt Q13164)
# T7 construct: gene MAPK7
# In short: as §1
structure (smiles),measurement,setting,value
"O=C(/C=C/c1cnccc1-c1ccc(F)cc1)Nc1ccc(CCc2nnco2)cc1 [T-418, (2E)-3-(4-(4-fluorophenyl)pyridin-3-yl)-N-(4-(2-(1,3,4-oxadiazol-2-yl)ethyl)phenyl)acrylamide]",remaining binding at 0.3 µM,TAOK1; sheet T-418,100%
same,remaining binding at 0.3 µM,EPHA7; sheet T-418,96%
same,remaining binding at 0.3 µM,BLK; sheet T-418,100%
same,remaining binding at 0.3 µM,ANKK1; sheet T-418,89%
same,remaining binding at 0.3 µM,LRRK2(G2019S); sheet T-418,84%
same,remaining binding at 0.3 µM,PIK3C2B; sheet T-418,88%
same,remaining binding at 0.3 µM,CSF1R; sheet T-418,81%
same,remaining binding at 0.3 µM,ASK2; sheet T-418,94%
same,remaining binding at 0.3 µM,MLK3; sheet T-418,94%
same,remaining binding at 0.3 µM,NEK9; sheet T-418,100%
same,remaining binding at 0.3 µM,"KIT(V559D,V654A); sheet T-418",96%
same,remaining binding at 0.3 µM,TGFBR2; sheet T-418,84%
same,remaining binding at 0.3 µM,RIPK2; sheet T-418,100%
same,remaining binding at 0.3 µM,TGFBR1; sheet T-418,94%
same,remaining binding at 0.3 µM,YANK2; sheet T-418,78%
same,remaining binding at 0.3 µM,PRP4; sheet T-418,82%
same,remaining binding at 0.3 µM,MAP3K1; sheet T-418,100%
same,remaining binding at 0.3 µM,[1]; sheet T-418,87%
same,remaining binding at 0.3 µM,NIK; sheet T-418,100%
same,remaining binding at 0.3 µM,BRAF; sheet T-418,100%
same,remaining binding at 0.3 µM,ERK2; sheet T-418,79%
same,remaining binding at 0.3 µM,ERK5; sheet T-418,75%
"Cc1ncccc1Oc1sc(C(N)=O)c2c1-c1c(cnn1C)CC2 [T-474, 1-methyl-8-((2-methylpyridin-3-yl)oxy)-4,5-dihydro-1H-thieno[3,4-g]indazole-6-carboxamide]",remaining binding at 0.3 µM,TAOK1,95%
same,remaining binding at 0.3 µM,EPHA7,94%
same,remaining binding at 0.3 µM,BLK,100%
same,remaining binding at 0.3 µM,ANKK1,100%
same,remaining binding at 0.3 µM,LRRK2(G2019S),88%
same,remaining binding at 0.3 µM,PIK3C2B,86%
same,remaining binding at 0.3 µM,CSF1R,100%
same,remaining binding at 0.3 µM,ASK2,100%
same,remaining binding at 0.3 µM,MLK3,97%
same,remaining binding at 0.3 µM,NEK9,100%
same,remaining binding at 0.3 µM,"KIT(V559D,V654A)",100%
same,remaining binding at 0.3 µM,TGFBR2,78%
same,remaining binding at 0.3 µM,RIPK2,100%
same,remaining binding at 0.3 µM,TGFBR1,81%
same,remaining binding at 0.3 µM,YANK2,100%
same,remaining binding at 0.3 µM,PRP4,89%
same,remaining binding at 0.3 µM,MAP3K1,84%
same,remaining binding at 0.3 µM,[1],61%
same,remaining binding at 0.3 µM,NIK,100%
same,remaining binding at 0.3 µM,BRAF,100%
same,remaining binding at 0.3 µM,ERK2,85%
same,remaining binding at 0.3 µM,ERK5,98%
